Data taken from paper PMC6491832, “Methylobacterium extorquens RSH Enzyme Synthesizes (p)ppGpp and pppApp in vitro and in vivo, and Leads to Discovery of pppApp Synthesis in Escherichia coli” (Frontiers in Microbiology, 2019).
Like-named read-outs stand apart in the source and are kept apart here.

Experiments:
RelSeq1-385 = molecular target: T1, RelSeq1-385 (Streptococcus dysgalactiae, UniProt Q54089); type: biochemical; details: 8 mM ATP, 8 mM GTP, 16 mM MgCl2, 50 mM Tris-HCl pH 8.9, 37 °C, control reaction
T1 construct: gene relA; N-terminal catalytic half, residues 1-385; His8-SUMO tag removed by Ulp1; expressed in E. coli BL21(DE3) Rosetta

purified protein [1] = substrate: Nc1nc2c(ncn2[C@@H]2O[C@H](COP(=O)(O)OP(=O)(O)OP(=O)(O)O)[C@@H](O)[C@H]2O)c(=O)[nH]1; experiment: purified protein; type: biochemical, Methylorubrum extorquens; details: 8 mM ATP, GTP 1-8 mM, 8 mM CoCl2, 50 mM Tris-HCl pH 8.9, 37 °C, 2 h, 80 nM enzyme, pyrophosphate acceptor
purified protein [2] = substrate: Nc1ncnc2c1ncn2[C@@H]1O[C@H](COP(=O)(O)OP(=O)(O)OP(=O)(O)O)[C@@H](O)[C@H]1O; experiment: purified protein; type: biochemical, Methylorubrum extorquens; details: 8 mM GTP, ATP 0.25-2 mM, 8 mM CoCl2, 50 mM Tris-HCl pH 8.9, 37 °C, 2 h, 80 nM enzyme, pyrophosphate donor

T1 sequence (Q54089 1-385): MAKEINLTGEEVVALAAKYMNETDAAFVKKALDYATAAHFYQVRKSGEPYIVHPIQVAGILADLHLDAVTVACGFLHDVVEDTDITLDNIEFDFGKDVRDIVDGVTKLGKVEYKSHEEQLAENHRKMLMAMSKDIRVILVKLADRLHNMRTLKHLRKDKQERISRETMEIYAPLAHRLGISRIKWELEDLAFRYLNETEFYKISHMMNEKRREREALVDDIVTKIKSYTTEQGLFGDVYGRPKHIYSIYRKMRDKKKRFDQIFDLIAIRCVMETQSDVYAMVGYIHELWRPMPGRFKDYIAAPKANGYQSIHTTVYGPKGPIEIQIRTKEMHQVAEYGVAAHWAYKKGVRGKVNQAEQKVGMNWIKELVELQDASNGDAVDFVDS

Q: For Nc1ncnc2c1ncn2[C@@H]1O[C@H](COP(=O)(O)OP(=O)(O)OP(=O)(O)O)[C@@H](O)[C@H]1O [ATP], which “pppGpp synthesis from [33P]gamma-ATP, two-dimensional TLC” value (RelSeq1-385; pyrophosphate donor) is on record?
A: The value was “ATP + GTP with RelSeq1-385 (to visualize pppGpp)”.

Q: How did the “pppGpp synthesis from [33P]gamma-ATP, two-dimensional TLC” value (RelSeq1-385; pyrophosphate acceptor) turn out when Nc1nc2c(ncn2[C@@H]2O[C@H](COP(=O)(O)OP(=O)(O)OP(=O)(O)O)[C@@H](O)[C@H]2O)c(=O)[nH]1 [GTP] was run?
A: The value was “ATP + GTP with RelSeq1-385 (to visualize pppGpp)”.

B1: RSHMex1-352 (Methylorubrum extorquens AM1) (protein)
chain: MMRQYELVERVKRYNPAANEALLNRAYVYAMRAHGTQKRASGDPFFAHPLEVAAILTDLRLDDATIVAAVLHDTVEDTAATLDEIREIFGPEIGALVDGLTKLKRLDLVSKRAVQGENFRKLLLAVAEDVRVLLVKLADRLHNMRTLHFMRDDKRARIAEETLDIYAPLAGRMGMQELRDELEDLSFRTLKPEVYATITKRLEDLSAKSGSVIESIEHDLTARLAARGIAAHVKGRLKKPFSIWSKMERKSVAFEQLSDIVGFRVIVGTLAECYAALGVVHTSWPMVPGRYKDYVSTPKQNDYRSIHTTVIGPKRQRVELQIRTAEMDEIAEYGIAAHAHYKEAGKEGVEGE
notes: N-terminal catalytic half (hydrolase + synthetase domains, residues 1-352), CTD regulatory domain omitted; His8-SUMO tag removed by Ulp1; expressed in E. coli BL21(DE3) Rosetta
Q: Which Km (purified protein [1]) does the source give for B1 here?
A: Its Km is 3000 ± 290 µM.

Q: And the Km (purified protein [2])?
A: The Km was 390 ± 10 µM.
